# Measured values published in PubChem BioAssay (NCI).
#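 How tested: cells in 96-well plates exposed to compound for 48 hours at five concentrations. GI50: concentration for 50% inhibition of growth. The concentration for full growth arrest is given as TGI.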
# Assays:
# Experiment in all cases: inhibition of tumour cell growth, NCI panel, 48 h
# [1] = system: MOLT-4 leukemia
# [2] = system: ACHN renal
# [3] = system: HT29 colon
# [4] = system: MALME-3M melanoma
# [5] = system: IGROV1 ovarian
# [6] = system: SF-539 CNS
# [7] = system: TK-10 renal
# [8] = system: NCI-H460 lung
# [9] = system: OVCAR-5 ovarian
# [10] = system: UO-31 renal
# [11] = system: OVCAR-8 ovarian
# [12] = system: M19-MEL melanoma
# [13] = system: A549 NSCLC
# [14] = system: DMS 114 small cell lung
# [15] = system: UACC-257 melanoma
# [16] = system: HOP-18 NSCLC
# [17] = system: SNB-75 CNS
# [18] = system: OVCAR-4 ovarian
# [19] = system: HCT-15 colon
# [20] = system: COLO 205 colon
# [21] = system: SN12C renal
# [22] = system: U251 CNS
# [23] = system: CCRF-CEM leukemia
# [24] = system: SF-268 CNS
# [25] = system: EKVX NSCLC
# [26] = system: HOP-62 NSCLC
# [27] = system: SK-MEL-2 melanoma
# [28] = system: DMS 273 small cell lung
# [29] = system: KM12 colon
# [30] = system: DLD-1 colon
# [31] = system: CAKI-1 renal
# [32] = system: UACC-62 melanoma
# [33] = system: HCT-116 colon
# [34] = system: NCI-H23 lung
# [35] = system: RXF 393 renal
# [36] = system: SNB-19 CNS
# [37] = system: HL-60(TB) leukemia
# [38] = system: SK-MEL-5 melanoma
# [39] = system: SK-MEL-28 melanoma
# [40] = system: OVCAR-3 ovarian
# [41] = system: SNB-78 CNS
# [42] = system: M14 melanoma
# [43] = system: 786-0 renal
# [44] = system: A498 renal
# [45] = system: RXF-631 renal
# [46] = system: SK-OV-3 ovarian
# [47] = system: SW-620 colon
# [48] = system: SF-295 CNS
# [49] = system: HCC-2998 colon
# [50] = system: LOX IMVI melanoma
# [51] = system: HOP-92 NSCLC
# [52] = system: NCI-H226 lung
# [53] = system: KM20L2 colon
# [54] = system: K-562 leukemia
# [55] = system: RPMI-8226 leukemia
# [56] = system: LXFL 529 NSCLC
# [57] = system: XF 498 CNS
# [58] = system: NCI-H522 lung
smiles,measurement,setting,value
COC1C(CN[N+](=O)CC2OC3OC(C)(C)OC3C2OC)OC2OC(C)(C)OC21 (centres undefined),TGI,[1],> 100 µM
same,TGI,[2],> 100 µM
same,TGI,[3],> 100 µM
same,TGI,[4],> 100 µM
same,TGI,[5],> 100 µM
same,TGI,[6],> 100 µM
same,TGI,[7],> 100 µM
same,TGI,[8],> 100 µM
same,TGI,[9],> 100 µM
same,TGI,[10],> 100 µM
same,TGI,[11],> 100 µM
same,TGI,[12],> 100 µM
same,TGI,[13],> 100 µM
same,TGI,[14],> 100 µM
same,TGI,[15],> 100 µM
same,TGI,[16],> 100 µM
same,TGI,[17],> 100 µM
same,TGI,[18],> 100 µM
same,TGI,[19],> 100 µM
same,TGI,[20],> 100 µM
same,TGI,[21],> 100 µM
same,TGI,[22],> 100 µM
same,TGI,[23],> 100 µM
same,TGI,[24],> 100 µM
same,TGI,[25],> 100 µM
same,TGI,[26],> 100 µM
same,TGI,[27],> 100 µM
same,TGI,[28],> 100 µM
same,TGI,[29],> 100 µM
same,TGI,[30],> 100 µM
same,TGI,[31],> 100 µM
same,TGI,[32],> 100 µM
same,TGI,[33],> 100 µM
same,TGI,[34],> 100 µM
same,TGI,[35],> 100 µM
same,TGI,[36],> 100 µM
same,TGI,[37],> 100 µM
same,TGI,[38],> 100 µM
same,TGI,[39],> 100 µM
same,TGI,[40],> 100 µM
same,TGI,[41],> 100 µM
same,TGI,[42],> 100 µM
same,TGI,[43],> 100 µM
same,TGI,[44],> 100 µM
same,TGI,[45],> 100 µM
same,TGI,[46],> 100 µM
same,TGI,[47],> 100 µM
same,TGI,[48],> 100 µM
same,TGI,[49],> 100 µM
same,TGI,[50],> 100 µM
same,TGI,[51],> 100 µM
same,TGI,[52],> 100 µM
O=C1OCc2c1cc1ccc(O)c(OC3OC(CO)C(O)C(O)C3O)c1c2-c1ccc2c(c1)OCO2 (centres undefined),GI50,[1],34.3 µM
same,TGI,[1],> 100 µM
same,TGI,[2],> 100 µM
same,TGI,[3],> 100 µM
same,TGI,[4],> 100 µM
same,TGI,[5],> 100 µM
same,TGI,[6],> 100 µM
same,TGI,[7],> 100 µM
same,TGI,[8],> 100 µM
same,TGI,[53],> 100 µM
same,TGI,[9],> 100 µM
same,GI50,[10],27.2 µM
same,TGI,[10],> 100 µM
same,GI50,[54],39.5 µM
same,TGI,[54],> 100 µM
same,TGI,[11],> 100 µM
same,GI50,[12],38.2 µM
same,TGI,[12],> 100 µM
same,TGI,[13],> 100 µM
same,TGI,[14],> 100 µM
same,GI50,[55],34.6 µM
same,TGI,[55],> 100 µM
same,GI50,[15],37.9 µM
same,TGI,[15],> 100 µM
same,TGI,[56],> 100 µM
same,GI50,[17],55.2 µM
same,TGI,[17],> 100 µM
same,GI50,[18],56.2 µM
same,TGI,[18],> 100 µM
same,TGI,[19],> 100 µM
same,TGI,[20],> 100 µM
same,TGI,[21],> 100 µM
same,TGI,[22],> 100 µM
same,GI50,[23],34.9 µM
same,TGI,[23],> 100 µM
same,GI50,[24],57.1 µM
same,TGI,[24],> 100 µM
same,TGI,[25],> 100 µM
same,TGI,[26],> 100 µM
same,GI50,[27],33.5 µM
same,TGI,[27],> 100 µM
same,TGI,[28],> 100 µM
same,GI50,[29],23.4 µM
same,TGI,[29],> 100 µM
same,TGI,[31],> 100 µM
same,TGI,[32],> 100 µM
same,GI50,[33],39.7 µM
same,TGI,[33],> 100 µM
same,GI50,[34],47.5 µM
same,TGI,[34],> 100 µM
same,TGI,[35],> 100 µM
same,GI50,[36],36 µM
same,TGI,[36],> 100 µM
same,GI50,[38],26.2 µM
same,TGI,[38],74.9 µM
same,TGI,[39],> 100 µM
same,GI50,[40],64.6 µM
same,TGI,[40],> 100 µM
same,TGI,[57],> 100 µM
same,TGI,[41],> 100 µM
same,TGI,[42],> 100 µM
same,TGI,[43],> 100 µM
same,TGI,[44],> 100 µM
same,TGI,[45],> 100 µM
same,TGI,[46],> 100 µM
same,TGI,[47],> 100 µM
same,TGI,[48],> 100 µM
same,GI50,[49],38.2 µM
same,TGI,[49],> 100 µM
same,TGI,[50],> 100 µM
same,GI50,[52],48.4 µM
same,TGI,[52],> 100 µM
same,GI50,[58],22.6 µM
same,TGI,[58],59.9 µM
COC(=O)C[C@H]1CCC2(OCCO2)[C@]1(C)C(=O)OC,TGI,[1],> 100 µM
same,TGI,[2],> 100 µM
same,TGI,[3],> 100 µM
same,TGI,[4],> 100 µM
same,TGI,[5],> 100 µM
same,TGI,[6],> 100 µM
same,TGI,[7],> 100 µM
same,TGI,[8],> 100 µM
same,TGI,[9],> 100 µM
same,TGI,[10],> 100 µM
same,TGI,[54],> 100 µM
same,TGI,[11],> 100 µM
same,TGI,[12],> 100 µM
same,TGI,[13],> 100 µM
same,TGI,[14],> 100 µM
same,TGI,[55],> 100 µM
same,TGI,[15],> 100 µM
same,TGI,[56],> 100 µM
same,TGI,[17],> 100 µM
same,TGI,[18],> 100 µM
same,TGI,[19],> 100 µM
same,TGI,[20],> 100 µM
same,TGI,[21],> 100 µM
same,TGI,[22],> 100 µM
same,TGI,[23],> 100 µM
same,TGI,[24],> 100 µM
same,TGI,[25],> 100 µM
same,TGI,[26],> 100 µM
same,TGI,[27],> 100 µM
same,TGI,[28],> 100 µM
same,TGI,[29],> 100 µM
same,TGI,[31],> 100 µM
same,TGI,[32],> 100 µM
same,TGI,[33],> 100 µM
same,TGI,[34],> 100 µM
same,TGI,[35],> 100 µM
same,TGI,[36],> 100 µM
same,TGI,[37],> 100 µM
same,TGI,[38],> 100 µM
same,TGI,[39],> 100 µM
same,TGI,[40],> 100 µM
same,TGI,[57],> 100 µM
same,TGI,[41],> 100 µM
same,TGI,[42],> 100 µM
same,TGI,[43],> 100 µM
same,TGI,[44],> 100 µM
same,TGI,[45],> 100 µM
same,TGI,[46],> 100 µM
same,TGI,[47],> 100 µM
same,TGI,[48],> 100 µM
same,TGI,[50],> 100 µM
same,TGI,[51],> 100 µM
same,TGI,[58],> 100 µM
